Like-named read-outs stand apart in the source and are kept apart here.
Key:
[1] = Cargo loading and ApoBP ligand content by microBCA / BCA assay; format: physicochemical
Protocol: The relative abundance of mannan incorporation was assessed by calculating the difference between the total amount offered for conjugation versus the amount recovered in the supernatant. […] The abundance of peptide conjugation was assessed by a microBCA assay and a nanodrop method.
The purified NPs were fully characterized using dynamic light scattering to determine particle size and surface charge, and scanning electron microscopy was performed to visualize particle morphology. The microBCA assay was used to detect OVA loading capacity and the conjugation efficiency of the peptide ligand, whereas the phenol-sulfuric acid method was used to determine mannan concentration. The endotoxin level was verified by a chromogenic LAL assay.
Particles were separated and washed by centrifugation (15,000 g, 10 min). Hydrodynamic size and surface potential were measured using dynamic light scattering (DLS), with visualization of the particle size and morphology by scanning electron microscopy (SEM). […] In addition to loading of T-cell epitopes, we also selected an IgE binding peptide for encapsulation, in addition to the synthesis of nanoparticles that incorporate CPPE as well as a purified Ara h2 protein (Indoor Biotechnologies). The CPPE was prepared as described in the Online Repository section. Allergen loading capacity, including for CPPE, purified Ara h2 and its epitopes, as well as the conjugation efficacy of the ApoB ligand was determined by bicinchoninic acid assay (BCA assay).

[2] = ionizable lipid; cited from earlier work
[3] = tested on: factor VII; conditions: cited from earlier work
[4] = tested on: human T-cell lines; conditions: T-cell lines isolated from 10 different donors; cited from earlier work
[5] = tested on: I-Ek; conditions: cited from earlier work; for SYFPEITHI score: I-Ek; for Score (antigenic score predicted): MHC II H2-E^k
[6] = tested on: T cell responses; design: Immunopositivity of predicted CTL epitope / Immunopositivity of MHC II peptide: scale not given here; conditions: cited from earlier work; for Immunopositivity of predicted CTL epitope: class I MHC peptides, Table 59; for Immunopositivity of MHC II peptide: MHC II peptides, Table 60
[7] = tested on: class I MHC K, D, and L loci; conditions: cited from earlier work; for predicted binding to the H2-Ld locus: SYFPEITHI and BIMAS
[8] = molecular target: H2-A^k (Mus musculus, UniProt P01910+P06343); conditions: MHC II H2-A^k; cited from earlier work
H2-A^k, sequence (P01910 24-256): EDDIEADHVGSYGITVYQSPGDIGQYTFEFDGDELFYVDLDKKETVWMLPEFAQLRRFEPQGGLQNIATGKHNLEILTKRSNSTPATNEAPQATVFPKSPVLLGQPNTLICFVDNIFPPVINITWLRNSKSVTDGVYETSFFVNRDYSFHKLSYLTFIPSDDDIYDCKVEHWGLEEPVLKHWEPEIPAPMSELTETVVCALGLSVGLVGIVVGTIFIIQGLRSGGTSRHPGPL
H2-A^k, sequence (P06343 28-263): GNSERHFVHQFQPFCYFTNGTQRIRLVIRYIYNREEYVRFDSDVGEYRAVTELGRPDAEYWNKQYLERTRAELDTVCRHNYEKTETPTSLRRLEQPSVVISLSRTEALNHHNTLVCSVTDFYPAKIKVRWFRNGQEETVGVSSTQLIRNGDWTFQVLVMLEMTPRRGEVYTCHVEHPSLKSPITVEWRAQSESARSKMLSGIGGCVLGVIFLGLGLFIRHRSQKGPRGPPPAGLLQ

[9] = peptide in PLGA nanoparticles, Table 66
[10] = H2 locus K, haplotype d (9-mer)
[11] = H2 locus K, haplotype k (9-mer)
[12] = H2 locus D, haplotype b (9-mer)

## 1 (LALFLLAAHASARQQ; listed as Arachis hypogaea) [compound 1]
[1]; epitope in PLGA NPs, Table 68
  Loading Capacity: 1.62 + 2.11 μg/mg

## 1,2-dioleoyl-3-dimethylaminopropane [DODAP]
[2]
  pKa: 6.6

## 2 (LRNLPQQCGLRAPQR; listed as Arachis hypogaea) [compound 2]
[1]; epitope in PLGA NPs, Table 68
  Loading Capacity: 3.22 ± 1.96 µg/mg

## 3 (MAKLTILVALALFLL; listed as Arachis hypogaea) [compound 3]
[1]; epitope in PLGA NPs, Table 68
  Loading Capacity: 1.31 + 1.72 μg/mg

## 4 (SYGRDPYSPSQDPYS; listed as Arachis hypogaea) [compound 4]
[1]; epitope in PLGA NPs, Table 68
  Loading Capacity: 8.68 ± 2.04 µg/mg

## CCCCC/C=C\C/C=C\CCCCCCCCC1(CCCCCCCC/C=C\C/C=C\CCCCC)OCC(CN(C)C)O1 (stereo not drawn) [DLin-K-DMA, 2,2-dilinoleyl-4-dimethylaminomethyl-[1,3]-dioxolane]
[3]; higher than the other tested lipids
  potency on the in vivo silencing of factor VII: 2.5 fold

## CCCCC/C=C\C/C=C\CCCCCCCCC1(CCCCCCCC/C=C\C/C=C\CCCCC)OCC(CCN(C)C)O1 (stereo not drawn) [DLin-KC2-DMA, 2,2-dilinoleyl-4-(2-dimethylaminoethyl)-[1,3]-dioxolane]
[3]; higher activity over DLin-K-DMA
  activity: 4 fold

## CCCCC/C=C\C/C=C\CCCCCCCCC(CCCCCCCC/C=C\C/C=C\CCCCC)OC(=O)CCCN(C)C [DLin-MC3-DMA, (6Z,9Z,28Z,31Z)-heptatriaconta-6,9,28,31-tetraen-19-yl-4-(dimethylamino) butanoate]
[2]
  pKa: 6.44
[3]; higher potency than DLin-KC2-DMA
  potency: 10 fold

## CCCCC/C=C\C/C=C\CCCCCCCCC(O)(CCCCCCCC/C=C\C/C=C\CCCCC)CCCCN(C)C [YSK012-C4]
[2]
  pKa: 8.0

## #1 (LALFLLAAHASARQQ; listed as Arachis hypogaea)
[1]; [9]
  Loading Capacity: 1.62 + 2.11

## #2 (LRNLPQQCGLRAPQR; listed as Arachis hypogaea)
[1]; [9]
  Loading Capacity: 3.22 + 1.96

## #3 (MAKLTILVALALFLL; listed as Arachis hypogaea)
[1]; [9]
  Loading Capacity: 1.31 + 1.72

## #4 (SYGRDPYSPSQDPYS; listed as Arachis hypogaea)
[1]; [9]
  Loading Capacity: 8.68 + 2.04

## AH91-110: adalimumab HCDR3 peptide
[4]
  recognition by T-cell lines: recognized by the majority of T-cell lines

## LEPLGLVEEGAKTAP [AAV8-VP3 aa 126-140, reference compound]
[5]
  SYFPEITHI score: 28
[6]; C3H mice
  Th1 response: strong H2k MHC II-restricted Th1 response

## NSYVTPICIADKEYT [hF.IX aa 328-342, reference compound]
[5]
  SYFPEITHI score: 24

## QPARKRLNF [AAV8 capsid aa 166-174, reference compound]
[7]
  predicted binding to the H2-Ld locus: high-scoring

## QVSVEIEWELQKENS [AAV2-VP3 475-489, reference compound]
[5]
  SYFPEITHI score: 22
[6]; C3H mice
  Th2 response: strong Th2 response

## SEQ ID NO: 1115 (QYGSVSTNL; listed as Arachis hypogaea)
[6]
  Immunopositivity of predicted CTL epitope: QYGSVSTNL^c
[7]; [10]
  BIM score predicted using the BIMAS program: 4147
  SYF score predicted using the SYFPEITHI program: 27

## SEQ ID NO: 1121 (LDRLMNPLI; listed as Arachis hypogaea)
[6]
  Immunopositivity of predicted CTL epitope: LDRLMNPLI^e
[7]; [11]
  SYF score predicted using the SYFPEITHI program: 20

## SEQ ID NO: 1122 (EEIRTTNPV; listed as Arachis hypogaea)
[6]
  Immunopositivity of predicted CTL epitope: EEIRTTNPY^e
[7]; [11]
  BIM score predicted using the BIMAS program: 100
  SYF score predicted using the SYFPEITHI program: 20

## SEQ ID NO: 1124 (TADVNTQGV; listed as Arachis hypogaea)
[6]
  Immunopositivity of predicted CTL epitope: TADVNTQGV^e
[7]; [12]
  BIM score predicted using the BIMAS program: 3.4
  SYF score predicted using the SYFPEITHI program: 23

## SEQ ID NO: 1133 (KYLGPFNGL; listed as Arachis hypogaea)
[6]
  Immunopositivity of predicted CTL epitope: KYLGPFNGL^c
[7]; [10]
  BIM score predicted using the BIMAS program: 6912
  SYF score predicted using the SYFPEITHI program: 27

## SEQ ID NO: 1134 (EYGIVADNLD; listed as Arachis hypogaea)
[6]
  Immunopositivity of predicted CTL epitope: EYGIVADNL^d
[7]; [10]
  BIM score predicted using the BIMAS program: 2400
  SYF score predicted using the SYFPEITHI program: 23

## SEQ ID NO: 1140 (LDRLMNPLI; listed as Arachis hypogaea)
[6]
  Immunopositivity of predicted CTL epitope: LDRLMNPLI^e
[7]; [11]
  BIM score predicted using the BIMAS program: 100
  SYF score predicted using the SYFPEITHI program: 20

## SEQ ID NO: 1141 (EEIKTTNPV; listed as Arachis hypogaea)
[6]
  Immunopositivity of predicted CTL epitope: EEIKTTNPV^e
[7]; [11]
  BIM score predicted using the BIMAS program: 100
  SYF score predicted using the SYFPEITHI program: 20

## SEQ ID NO: 1151 (KYNHDIALL; listed as Arachis hypogaea)
[6]
  Immunopositivity of predicted CTL epitope: KYNHDIALL^c
[7]; [10]
  BIM score predicted using the BIMAS program: 3456
  SYF score predicted using the SYFPEITHI program: 24

## SEQ ID NO: 1152 (GYVSGWGRVD; listed as Arachis hypogaea)
[6]
  Immunopositivity of predicted CTL epitope: GYVSGWGRV^d
[7]; [10]
  BIM score predicted using the BIMAS program: 1440
  SYF score predicted using the SYFPEITHI program: 22

## SEQ ID NO: 1160 (GSIVNEKWID; listed as Arachis hypogaea)
[6]
  Immunopositivity of predicted CTL epitope: GSIVNEKWI^d
[7]; [12]
  BIM score predicted using the BIMAS program: 936
  SYF score predicted using the SYFPEITHI program: 26

## SEQ ID NO: 1161 (LDHENANKI; listed as Arachis hypogaea)
[6]
  Immunopositivity of predicted CTL epitope: LDHENANKI^e
[7]; [12]
  BIM score predicted using the BIMAS program: 240
  SYF score predicted using the SYFPEITHI program: 23

## SEQ ID NO: 1170 (QVSVEIEWELQKENS; listed as Arachis hypogaea)
[5]
  Score (antigenic score predicted): 22
[6]
  Immunopositivity of MHC II peptide: QVSVEIEWELQKENS^b

## SEQ ID NO: 1171 (GVLIFGKQSEKTNV; listed as Arachis hypogaea)
[5]
  Score (antigenic score predicted): 22

## SEQ ID NO: 1172 (TSADNNNSEYSWTGA; listed as Arachis hypogaea)
[8]
  Score (antigenic score predicted): 24

## SEQ ID NO: 1173 (NGRDSLVNPGPAMAS; listed as Arachis hypogaea)
[8]
  Score (antigenic score predicted): 24

## SEQ ID NO: 1174 (LEPLGLVEEGAKTAP; listed as Arachis hypogaea)
[5]
  Score (antigenic score predicted): 28
[6]
  Immunopositivity of MHC II peptide: LEPLGLVEEGAKTAP^b

## SEQ ID NO: 1175 (YKYLLGPFNGLDKGEP; listed as Arachis hypogaea)
[5]
  Score (antigenic score predicted): 28
[6]
  Immunopositivity of MHC II peptide: YKYLLGPINGUDKGEP^d

## SEQ ID NO: 1176 (IVADNLQQQNTAPQI; listed as Arachis hypogaea)
[8]
  Score (antigenic score predicted): 26

## SEQ ID NO: 1178 (NSYVTPICIADEKEYT; listed as Arachis hypogaea)
[5]
  Score (antigenic score predicted): 24
[6]
  Immunopositivity of MHC II peptide: NSYVTPICIADKEYT^c

## SEQ ID NO: 1179 (YTKVSRYVNWIEKEKT; listed as Arachis hypogaea)
[5]
  Score (antigenic score predicted): 22

## SEQ ID NO: 1180 (NKWCSCTEGYRLAE; listed as Arachis hypogaea)
[5]
  Score (antigenic score predicted): 22

## SEQ ID NO: 1181 (YNHDIALLELLEDEPLV; listed as Arachis hypogaea)
[8]
  Score (antigenic score predicted): 24

## SEQ ID NO: 1182 (CKDDINSYECWCPFG; listed as Arachis hypogaea)
[8]
  Score (antigenic score predicted): 18

## SEQ ID NO: 1183 (QYVDGDQCESNPCLN; listed as Arachis hypogaea)
[8]
  Score (antigenic score predicted): 18

## VPQYGYLTL [AAV2 capsid aa 170-178, reference compound]
[7]
  predicted binding to the H2-Ld locus: high-scoring

## YTKVSRYVNWIKEKT [hF.IX aa 444-460, reference compound]
[5]
  SYFPEITHI score: 22

Source: US20250339514A1, “SINGLE-AND MULTI-EPITOPE PEPTIDE AND MRNA VACCINES TO GENERATE TOLEROGENIC EFFECTS FOR ALLERGIC AND AUTOIMMUNE DISEASE BY TARGETING LIVER SINUSOIDAL ENDOTHELIAL CELLS” (The Regents of the University of California, priority 2022, published 2025)
